Source: patent US9737504B2, “Dihydroorotic and acid dehydrogenase inhibitor” (NAI INC., priority 2012, dated 2017)
Like-named read-outs stand apart in the source and are kept apart here.

What was measured:
human DHOD [1] = molecular target: T1, human DHOD (Homo sapiens, UniProt Q02127); assay: Measurement of DHOD inhibitory activity (DCIP reduction, end point assay); format: biochemical; conditions: for inhibition at 0.2 µM: read-out: DHOD inhibition rate (%) 200 nM, 200 nM compound; for IC50: read-out: IC50 (nM) human DHOD (HsDHOD)
T1 sequence (Q02127 whole entry): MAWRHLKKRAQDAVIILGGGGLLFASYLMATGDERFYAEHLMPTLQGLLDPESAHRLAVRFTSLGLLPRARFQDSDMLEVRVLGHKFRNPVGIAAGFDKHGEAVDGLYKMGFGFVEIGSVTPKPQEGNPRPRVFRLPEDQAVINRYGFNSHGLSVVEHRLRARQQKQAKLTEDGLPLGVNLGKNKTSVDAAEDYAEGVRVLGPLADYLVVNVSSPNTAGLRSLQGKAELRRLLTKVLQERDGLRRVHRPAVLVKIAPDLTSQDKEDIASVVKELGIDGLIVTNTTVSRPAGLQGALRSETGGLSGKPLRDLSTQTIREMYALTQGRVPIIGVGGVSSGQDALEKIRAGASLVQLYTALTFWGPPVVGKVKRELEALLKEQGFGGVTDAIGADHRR
Procedure: The compounds of the present invention were used and measured for their DHOD inhibitory activity at concentrations of 200 nM and 1000 nM.
Reduction of DCIP was measured at 600 nm over 20 minutes.

human DHOD [2] = molecular target: T1, human DHOD; assay: as above; format: biochemical; conditions: read-out: DHOD inhibition rate (%) 100 nM; 100 nM compound
KM-12 = assay: JFCR39 cancer cell growth inhibition test, KM-12; format: cell-based; conditions: Homo sapiens, KM12; KM-12, Co (Colon)
bovine complex II-III = assay: Inhibition of bovine complex II-III; format: biochemical
[3] = tested on: HDF cells (human dermal fibroblast cells); assay: Inhibitory effect on HDF cells, control vs hypoxic and subnutritional conditions; format: cell-based; conditions: for Selectivity = 21% glc(+)gln(+) IC50/1% glc(−)gln(−) IC50: HDF; for IC50: Homo sapiens, HDF normal skin cells
Procedure: (§1) For these reasons, cells of colorectal and pancreatic cancers, each being regarded as intractable, were used to test the inhibitory effect of compounds under hypoxic and subnutritional conditions. Moreover, the same test was also performed on normal skin cells.
The cells used were two types of cancer cells, i.e., DLD-1 cells (human colorectal cancer cells) and Panc-1 cells (human pancreatic cells), as well as HDF cells (human dermal fibroblast cells).

[4] = tested on: DLD-1 cells (human colorectal cancer cells); assay: Inhibitory effect on DLD-1 cells, control vs hypoxic and subnutritional conditions; format: cell-based; conditions: for IC50: Homo sapiens
Procedure: as §1
The cells used were two types of cancer cells, i.e., DLD-1 cells (human colorectal cancer cells) and Panc-1 cells (human pancreatic cells), as well as HDF cells (human dermal fibroblast cells). Culture conditions were set as follows: 21% oxygen with glucose and […] (10% FBS) for the control group, and 1% oxygen without glucose and […] (10% FBS) for the hypoxic and subnutritional group. The results obtained are shown in Tables 3, 4 and 5, as well as FIGS. 1, 2 and 3.

OVCAR-8 = assay: JFCR39 cancer cell growth inhibition test, OVCAR-8; format: cell-based; conditions: Homo sapiens; OVCAR-8, Ov (Ovarian)
MKN74 = assay: JFCR39 cancer cell growth inhibition test, MKN74; format: cell-based; conditions: Homo sapiens, MKN-74; MKN74, St (Stomac)
HCC2998 = assay: JFCR39 cancer cell growth inhibition test, HCC2998; format: cell-based; conditions: Homo sapiens, HCC 2998; HCC2998, Co (Colon)
MKN28 = assay: JFCR39 cancer cell growth inhibition test, MKN28; format: cell-based; conditions: Homo sapiens, MKN-28; MKN28, St (Stomac)
L0X-IMVI = assay: JFCR39 cancer cell growth inhibition test, L0X-IMVI; format: cell-based; conditions: Homo sapiens, Me (Melanoma)
UMP levels = conditions: after treatment with 25 μM NSC368390; cited from earlier work
DLD-2 colon cancer = conditions: in vivo; cited from earlier work
[5] = tested on: human MX-1 breast, LX-1 lung, BL/STX-1 stomach and CX-1 colon carcinomas; conditions: nude mice, 20 to 40 mg/kg/day; MX-1, LX-1, BL/STX-1, CX-1; cited from earlier work
[6] = read-out: IC50 DLD-1 [μM] 1% O2 glc(−)gln(−), DLD-1, 1% O2 glc(−)gln(−), 24 hours
[7] = read-out: IC50 DLD-1 [μM] 1% O2 glc(−)gln(−), DLD-1, 1% O2 glc(−)gln(−), 48 hours
[8] = read-out: IC50 [μM] 1% O2 glc(−)gln(−), 1% O2 glc(−)gln(−)

## C/C(=C\Cc1c(O)c(Cl)c(C)c(C=O)c1O)CC/C=C(\C)C(C)O (stereo not drawn) [277-9-OH, 3-Chloro-4,6-dihydroxy-2-methyl-5-(2E,6E)-(8-hydroxy-3,7-dimethyl-2,6-nonadienyl)benzaldehyde]
Human DHOD [1]
  inhibition at 0.2 µM: 75%
  IC50: 64 nM
Human DHOD [2]
  inhibition at 0.1 µM: 107%
KM-12
  GI50: 32 µM

## COC(=O)/C(C)=C/CC/C(C)=C/Cc1c(O)c(Cl)c(C)c(C=O)c1O [275-10-COOMe, Methyl (2E,6E)-8-(3-chloro-5-formyl-2,6-dihydroxy-4-methyl)phenyl-2,6-dimethyl-2,6-octa dienoate]
Human DHOD [1]
  inhibition at 0.2 µM: 100%
  IC50: 4.2 nM
Bovine complex II-III
  IC50: 1.9 µM
[3]
  Selectivity = 21% glc(+)gln(+) IC50/1% glc(−)gln(−) IC50: >32
Human DHOD [2]
  inhibition at 0.1 µM: 100%
[4]; DLD-1, 24 hours
  Selectivity = 21% glc(+)gln(+) IC50/1% glc(−)gln(−) IC50: >59
[4]; DLD-1, 48 hours
  Selectivity = 21% glc(+)gln(+) IC50/1% glc(−)gln(−) IC50: >156
[4]; [6]
  IC50: 1.7 µM
[4]; [7]
  IC50: 0.64 µM
OVCAR-8
  GI50: 4.4 µM
KM-12
  GI50: 6.4 µM

## CC(C)=CCC/C(C)=C/CC/C(C)=C/Cc1c(O)c(Cl)c(C)c(C=O)c1O [280-12, (E,E)-3-Chloro-4,6-dihydroxy-5-(3,7,11-trimethyl-2,6,10-dodecatienyl)-2-methylbenzaldehyde]
Human DHOD [1]
  inhibition at 0.2 µM: 104%
  IC50: 6 nM
Bovine complex II-III
  IC50: 0.26 µM
[3]
  Selectivity = 21% glc(+)gln(+) IC50/1% glc(−)gln(−) IC50: 353
[3]; [8]
  IC50: 0.17 µM
[3]; 21% O2 glc(+)gln(+), read-out: IC50 [μM] 21% O2 glc(+)gln(+)
  IC50: 60 µM
Human DHOD [2]
  inhibition at 0.1 µM: 94%
MKN74
  GI50: 1.3 µM
[4]; DLD-1, 24 hours
  Selectivity = 21% glc(+)gln(+) IC50/1% glc(−)gln(−) IC50: 1100
[4]; DLD-1, 48 hours
  Selectivity = 21% glc(+)gln(+) IC50/1% glc(−)gln(−) IC50: 1480
[4]; [6]
  IC50: 0.069 µM
[4]; [7]
  IC50: 0.025 µM
[4]; DLD-1, 21% O2 glc(+)gln(+), 24 hours, read-out: IC50 DLD-1 [μM] 21% O2 glc(+)gln(+)
  IC50: 76 µM
[4]; DLD-1, 21% O2 glc(+)gln(+), 48 hours, read-out: IC50 DLD-1 [μM] 21% O2 glc(+)gln(+)
  IC50: 37 µM
KM-12
  GI50: 2 µM

## C/C(=C\COC(=O)C(C)C)CC/C(C)=C/Cc1c(O)c(Cl)c(C)c(C=O)c1O [287-12-OCOiPr, (2E,6E)-8-(3-Chloro-5-formyl-2,6-dihydroxy-4-methylphenyl)-3,6-dimethyl-2,6-octa dienyl isobutylate]
Human DHOD [1]
  inhibition at 0.2 µM: 101%
  IC50: 21.5 nM
other
  melting point: 62 to 63 °C
HCC2998
  GI50: 15 µM
Human DHOD [2]
  inhibition at 0.1 µM: 109%
MKN74
  GI50: 14 µM
OVCAR-8
  GI50: 9.1 µM
MKN28
  GI50: 10 µM
KM-12
  GI50: 10 µM

## CC(=O)OC(C)/C(C)=C/CC/C(C)=C/Cc1c(O)c(Cl)c(C)c(C=O)c1O (stereo not drawn) [277-11-OAc, (3E,7E)-9-(3-Chloro-5-formyl-2,6-dihydroxy-4-methyl)phenyl-3,7-dimethyl-3,7-nonadien-2-yl acetate]
L0X-IMVI
  GI50: 1.5 µM
Human DHOD [1]
  inhibition at 0.2 µM: 97%
  IC50: 6.5 nM
Bovine complex II-III
  IC50: 4.5 µM
[3]
  Selectivity = 21% glc(+)gln(+) IC50/1% glc(−)gln(−) IC50: >25
[3]; [8]
  IC50: 4 µM
Human DHOD [2]
  inhibition at 0.1 µM: 103%
[4]; DLD-1, 24 hours
  Selectivity = 21% glc(+)gln(+) IC50/1% glc(−)gln(−) IC50: >53
[4]; DLD-1, 48 hours
  Selectivity = 21% glc(+)gln(+) IC50/1% glc(−)gln(−) IC50: >109
[4]; [6]
  IC50: 1.9 µM
[4]; [7]
  IC50: 0.92 µM
KM-12
  GI50: 5.7 µM

## Cc1c(-c2ccc(-c3ccccc3F)cc2)nc2ccc(F)cc2c1C(=O)[O-].[Na+] [NSC368390, 6-Fluoro-2-(2′-fluoro-1,1′-biphenyl-4-yl)-3-methyl-4-quinolinecarboxylic Acid Sodium Salt]
UMP levels
  reduction of UMP levels: 50%
DLD-2 colon cancer
  growth inhibition of DLD-2 colon cancer: 98%
[5]
  inhibition of the growth of human carcinomas: ≥ 90%
